Data set [1] relates to L-NAME treated SHR rats. Kind of data set: Rat model for pharmacological activity using blood pressure as a marker. It counts as in vivo. The note with it: AEN tosylate 0.5 mg/kg/h infused, valsartan 5 mg/kg single daily dose; for effect on blood pressure: after 1 and 2 weeks. Here is the method: FIG. 5: Pharmacological activity of AEN tosylate, valsartan and AEN tosylate/valsartan combination on blood pressure in L-NAME treated SHR rats.
Column 1: AEN tosylate (0.5 mg/kg/h), column 2: valsartan (single dose 5 mg/kg), column 3: AEN tosylate (0.5 mg/kg/h) plus valsartan (single daily dose 5 mg/kg).
Hatched bars: blood pressure lowering versus control after 1 week, black solid bars after 2 weeks. Vertical axis: reduction in blood pressure in mm Hg
SHR rats were treated with L-NAME to increase blood pressure. Following treatment with L-NAME rats were treated continuously for two weeks with either AEN tosylate (1) with a continuously infused dose (using an osmotic pump) of 0.5 mg/kg/h (column 1 in FIG. 5), valsartan at 5 mg/kg, single daily dose (column 2 in FIG. 5) or AEN tosylate plus valsartan (combined doses, group 3 in FIG. 5). Effects on blood pressure were measured after 1 week and after 2 weeks of treatment.

The conditions of data set [2]: in vivo; cited from earlier work.
The conditions of data set [3]: in vivo; cited from earlier work. This is another data set of the same source.

In the case of `Cc1ccc(S(=O)(=O)O)cc1.NCCO[N+](=O)[O-]` [AEN tosylate, 2-aminoethylnitrate (aen) tosylate], in data set [1], the “effect on blood pressure” value is recorded as “continued pharmacological activity”. For the same compound, the NO-tolerance induction result in data set [1] (two weeks continuous treatment) was “without showing signs of NO-tolerance induction”.
In the case of `NCCO[N+](=O)[O-]` [AEN, 2-aminoethyl nitrate], in data set [2], the “development of nitrate tolerance” value is listed as “no development of nitrate tolerance”. In data set [3], the half-live result is reported as “approx. 2 hours”.
Consider `CCCCC(=O)N(Cc1ccc(-c2ccccc2-c2nnn[nH]2)cc1)[C@H](C(=O)O)C(C)C` [valsartan], for which the “effect on blood pressure” value in data set [1] is “lowered blood pressure”.

(Values after patent US20150216992A1, “EXTENDED RELEASE COMPOSITIONS OF AN AMINOALKYL NITRATE” (CARDIOLYNX AG, priority 2012, published 2015).)
